US11712466B2, “Vaccine composition” (TOHOKU UNIVERSITY, priority 2017, dated 2023)
Entries after “also recorded” stand apart in the source; their conditions may differ. Ends that are not written are not given here.

Columns and labels:
[1] = test system: mZeb1; test: Gene expression in excised tumor tissue by real-time PCR, mZeb1; type: in vivo, mouse; conditions: tumor excised two weeks after implantation
Protocol: (§1) The mouse implanted with the tumor cells in Example 2 was sacrificed two weeks after implantation of the tumor cells, and a tumor was excised from the right axillary subcutaneous region. By using RNeasy Plus Kit (Qiagen, Inc.), extraction of the total RNA from the excised tumor and purification thereof were carried out. By using the obtained total RNA as a template, cDNA was synthesized by reverse transcription reaction. The cDNA was analyzed by performing real-time PCR using a mixed solution of the obtained cDNA and SYBR green (TAKARA BIO, Inc.).

[2] = test system: pancreatic cancer cell line (K5); test: Metastasis inhibitory effect in vivo, K5 injected through tail vein, lung metastatic lesion; design: species or system mouse; conditions: 100 μg, Alhydrogel, C57BL/6J mice, day 21 after K5 injection; KLH control 2 out of 5 mice with metastasis
Protocol: 20 μg or 100 μg of KLH (control) and 20 μg or 100 μg of the MTG peptide vaccine were prepared with physiological saline so that the total amount was 100 μL, respectively, whereby KLH-mixed solutions were obtained. To each of the KLH-mixed solutions (100 μL), an equal amount of Alhydrogel (registered trademark) was added. The obtained mixture (200 μL) was intradermally (ID) administered to C57BL/6J male mice (n=5) aged 8 weeks, whereby initial immunization was carried out (0 day). Incidentally, in the intradermal administration, 200 μL was administered at a dose of 100 μL each to two sites. After 2 weeks from the administration (14 days), booster immunization was carried out by subcutaneously administering a mixture of each of the KLH-mixed solutions (100 μL) and an equal amount of Alhydrogel (registered trademark) to the mice. […] Further, at that time point, the blood was collected from each mouse, and the antibody titer of an antibody specific to the antigen peptide or the recombinant human VASH2 protein was measured by ELISA. The mice were sacrificed on day 21 after the injection of K5 (49 days), and the lung metastatic lesion was analyzed (FIG. 10). […]

[3] = test system: recombinant human VASH2 protein; test: Antibody titer in blood of immunized mice by ELISA against recombinant VASH2 protein; type: in vivo, mouse; conditions: for production of an antibody specific to VASH2: Example 5: C57BL/6J mice
Text: C57BL/6J male mice aged 8 weeks were purchased from Charles River Laboratories Japan, Inc. After the delivery, the mice were reared in an environment where the room temperature and the light and dark cycles were maintained, and were provided with feed and water ad libitum. As a candidate sequence leading to activation of helper T cells by MHC class II, two peptide sequences: MTGSAADTHR (SEQ ID NO: 4; hereinafter, a peptide composed of the amino acid sequence is referred to as “MTG peptide”) and RRRQASPPRR (SEQ ID NO: 5; hereinafter, a peptide composed of the amino acid sequence is referred to as “RRR peptide”), each of which is not common to VASH1 in the VASH2 sequence were selected (FIG. 1). With respect to these peptides, peptide vaccines using KLH as a carrier were constructed. Note that for the conjugation of each peptide with KLH, a glutaraldehyde method was used. When the amount of the peptide introduced into KLH was measured for each of the obtained peptide vaccines, the amount of MTG was 66 to 70 nmol/mg of the conjugate, and the amount of RRR was 62 to 76 nmol/mg of the conjugate. Subsequently, 5 μg of KLH (control) and 20 μg of each of the KLH-antigen complexes were prepared with physiological saline so that the total amount was 50 μL, respectively, whereby KLH-mixed solutions were obtained. To each of the KLH-mixed solutions (50 μL), an equal amount of complete Freund's adjuvant was added. The obtained mixture was subcutaneously administered to the mice, whereby initial immunization was carried out. After 2 weeks from the administration, booster immunization was carried out by subcutaneously administering a mixture of each of the KLH-mixed solutions (50 μL) and an equal amount of incomplete Freund's adjuvant to the mice. Further, after 2 weeks from the booster immunization (after a total of 4 weeks), an increase in the antibody titer in the blood of each of the immunized mice was verified by ELISA.
The measurement of the antibody titer by ELISA was carried out as follows. After 2 weeks from the booster immunization (after a total of 4 weeks), the blood was collected from the facial vein of each of the immunized mice, and the serum separated from the blood was subjected to ELISA. By using 50 mM carbonate buffer, peptide-conjugated BSA was prepared at 10 μg/mL, and further a recombinant VASH2 protein was prepared at 1 μg/mL, each of which was added at 50 μL/well, and the resultant was left to stand overnight at 4° C. After the solution in each well was removed, 5% skim milk was added at 150 μL/well. After the resultant was left to stand at room temperature for 2 hours, the solution was removed, and subsequently, a serum sample diluted by 20 to 62500 times with 5% skim milk was added at 50 μL/well, and the resultant was left to stand overnight at 4° C. Subsequently, washing was carried out with PBS (200 μL/well×6 times), and thereafter, a secondary antibody (HRP-conjugated anti-Mouse IgG) diluted by 1000 times with 5% skim milk was added at 50 μL/well. After the resultant was left to stand at room temperature for 3 hours, washing was carried out with PBS (200 μL/well×3 times). Thereafter, tetramethylbenzidine (TMB) was added at 50 μL/well, and the resultant was left to stand at room temperature under light shielding. After 30 minutes, the reaction was stopped by adding 0.5 N H2SO4 at 50 μL/well, and an absorbance (450 nm) was measured using a microplate reader.

[4] = test system: mCD31; test: Gene expression in excised tumor tissue by real-time PCR, mCD31; type: in vivo, mouse; conditions: 20 μg vaccine; tumor excised two weeks after implantation
Protocol: as §1

[5] = test system: mSnail; test: Gene expression in excised tumor tissue by real-time PCR, mSnail; type: in vivo, mouse; conditions: tumor excised two weeks after implantation
Protocol: as §1

For “MTG peptide vaccine: MTG peptide MTGSAADTHR (SEQ ID NO: 4) conjugated with KLH as carrier by a glutaraldehyde method (also: conjugated with KLH by glutaraldehyde)”, the “expression of mZeb1 (epithelial-mesenchymal transition marker) in tumor tissue” value [1] was “dose-dependent expression inhibitory effect; also recorded: significantly inhibited depending on the dose”, the “lung metastasis of the pancreatic cancer cells K5” value [2] was “not confirmed in all four individuals” and the “antibody titer against the recombinant human VASH2 protein” value ([3]; Example 1: C57BL/6J mice, KLH-antigen complex s.c., Freund's adjuvant, serum 2 weeks after booster (total 4 weeks)) was “a significant increase in the antibody titer was confirmed; also recorded: a significant increase in the antibody titer was observed”. For the same substance, the “production of an antibody specific to VASH2” value ([3]; 20 or 100 μg, Alhydrogel adjuvant, day 28) was “promoted the production of an antibody specific to VASH2”, the “production of an antibody specific to VASH2” value ([3]; 20 or 100 μg, Freund's adjuvant, day 28) was “promoted the production of an antibody specific to VASH2” and the “production of an antibody specific to the VASH2 recombinant protein” value ([3]; Example 6: C57BL/6J mice, 20 or 100 μg, Alhydrogel, day 28) was “promotes the production of an antibody”. For the same substance, the “induced antibody binding to the VASH2 recombinant protein” value ([3]; Example 8: C57BL/6Jx129SVJ mice, 100 μg, Alhydrogel, day 28) was “induced an antibody that binds to both”, the “expression of mCD31 (angiogenesis marker) in tumor tissue” value [4] was “expression of mCD31 was inhibited; also recorded: a tendency to inhibit the expression” and the “expression of mSnail (epithelial-mesenchymal transition marker) in tumor tissue” value [5] was “dose-dependent expression inhibitory effect; also recorded: significantly inhibited depending on the dose”.
